From PMC8185074, “Anchor extension: a structure-guided approach to design cyclic peptides targeting enzyme active sites” (Nature Communications, 2021)
Peptide text beside a SMILES is read from it.

Key:
Assay type in all cases: biochemical
HDAC2 = biological target: T1, HDAC2 (Homo sapiens, UniProt Q92769); assay: HDAC2 inhibition, full IC50 measurement (Reaction Biology; fluorogenic p53 peptide RHKK(Ac)AMC)
T1 construct: purchased Reaction Biology Corporation (assay run by the CRO)
In short: (§1)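 Reaction: enzyme plus acoustically dispensed peptide inhibitor, 50 μM RHKK(Ac)AMC substrate, pH 8.0 Tris buffer with BSA and 1% DMSO, 1 h, 30 °C. Duplicates averaged.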

HDAC1 = biological target: T2, HDAC1 (Homo sapiens, UniProt Q13547); assay: HDAC1 inhibition, full IC50 measurement (Reaction Biology; fluorogenic p53 peptide RHKK(Ac)AMC); conditions: for HDAC1 activity raw data (signal): t1/t2 replicates
T2 construct: purchased Reaction Biology Corporation (assay run by the CRO)
In short: as §1

HDAC8 = biological target: T3, HDAC8 (Homo sapiens, UniProt Q9BY41); assay: HDAC8 inhibition, full IC50 measurement (Reaction Biology; fluorogenic p53 peptide RHKK(Ac)AMC); conditions: for HDAC8 activity raw data (signal): t1/t2 replicates
T3 construct: purchased Reaction Biology Corporation (assay run by the CRO)
T3 sequence (Q9BY41 1-377): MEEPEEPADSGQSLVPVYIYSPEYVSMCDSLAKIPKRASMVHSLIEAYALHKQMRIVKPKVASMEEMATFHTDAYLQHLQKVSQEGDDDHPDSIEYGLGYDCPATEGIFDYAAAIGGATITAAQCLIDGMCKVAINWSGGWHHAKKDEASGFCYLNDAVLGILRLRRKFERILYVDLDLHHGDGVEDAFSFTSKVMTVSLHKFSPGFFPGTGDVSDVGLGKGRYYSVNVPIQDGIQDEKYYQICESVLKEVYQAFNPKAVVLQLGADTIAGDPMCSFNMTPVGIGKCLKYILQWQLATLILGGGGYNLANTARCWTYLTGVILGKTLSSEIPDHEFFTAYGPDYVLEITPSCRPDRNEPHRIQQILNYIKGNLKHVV
In short: as §1

[1] = peptide conc. 1.00E-05 M, listed as des4.2.0_t1
[2] = peptide conc. 1.00E-05 M, listed as des4.2.0_t2
[3] = peptide conc. 1.11E-06 M, listed as des4.2.0_t1
[4] = peptide conc. 1.11E-06 M, listed as des4.2.0_t2
[5] = peptide conc. 1.23E-07 M, listed as des4.2.0_t1
[6] = peptide conc. 1.23E-07 M, listed as des4.2.0_t2
[7] = peptide conc. 1.37E-08 M, listed as des4.2.0_t1
[8] = peptide conc. 1.37E-08 M, listed as des4.2.0_t2
[9] = peptide conc. 1.52E-09 M, listed as des4.2.0_t1
[10] = peptide conc. 1.52E-09 M, listed as des4.2.0_t2
[11] = peptide conc. 3.33E-06 M, listed as des4.2.0_t1
[12] = peptide conc. 3.33E-06 M, listed as des4.2.0_t2
[13] = peptide conc. 3.70E-07 M, listed as des4.2.0_t1
[14] = peptide conc. 3.70E-07 M, listed as des4.2.0_t2
[15] = peptide conc. 4.12E-08 M, listed as des4.2.0_t1
[16] = peptide conc. 4.12E-08 M, listed as des4.2.0_t2
[17] = peptide conc. 4.57E-09 M, listed as des4.2.0_t1
[18] = peptide conc. 4.57E-09 M, listed as des4.2.0_t2
[19] = peptide conc. 5.08E-10 M, listed as des4.2.0_t1
[20] = peptide conc. 5.08E-10 M, listed as des4.2.0_t2

T1 sequence (Q92769 whole entry): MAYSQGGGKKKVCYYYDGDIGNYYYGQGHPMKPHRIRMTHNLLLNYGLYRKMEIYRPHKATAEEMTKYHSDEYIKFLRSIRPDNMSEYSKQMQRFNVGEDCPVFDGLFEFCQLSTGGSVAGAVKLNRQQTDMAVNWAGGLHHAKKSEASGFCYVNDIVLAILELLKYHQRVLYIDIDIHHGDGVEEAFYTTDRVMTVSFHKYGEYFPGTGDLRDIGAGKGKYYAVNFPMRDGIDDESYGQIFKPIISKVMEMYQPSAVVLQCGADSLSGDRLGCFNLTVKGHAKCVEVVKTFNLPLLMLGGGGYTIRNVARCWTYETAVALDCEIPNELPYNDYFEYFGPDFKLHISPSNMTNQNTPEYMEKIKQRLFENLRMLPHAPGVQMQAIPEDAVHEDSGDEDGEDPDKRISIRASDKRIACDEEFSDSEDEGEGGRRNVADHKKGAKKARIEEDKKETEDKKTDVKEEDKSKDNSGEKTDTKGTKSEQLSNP
T2 sequence (Q13547 whole entry): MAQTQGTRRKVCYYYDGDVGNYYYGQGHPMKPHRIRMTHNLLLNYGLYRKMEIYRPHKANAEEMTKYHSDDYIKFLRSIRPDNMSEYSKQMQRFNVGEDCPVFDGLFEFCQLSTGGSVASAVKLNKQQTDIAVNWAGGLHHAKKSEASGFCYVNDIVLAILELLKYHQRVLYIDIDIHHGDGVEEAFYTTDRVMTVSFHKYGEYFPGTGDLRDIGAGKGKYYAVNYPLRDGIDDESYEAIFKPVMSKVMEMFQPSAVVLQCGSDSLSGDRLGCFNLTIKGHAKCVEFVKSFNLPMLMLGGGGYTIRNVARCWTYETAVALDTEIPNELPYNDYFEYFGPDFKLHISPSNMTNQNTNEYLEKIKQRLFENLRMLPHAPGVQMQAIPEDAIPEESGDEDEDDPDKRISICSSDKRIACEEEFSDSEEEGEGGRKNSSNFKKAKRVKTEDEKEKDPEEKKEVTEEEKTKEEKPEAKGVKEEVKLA

SMILES: CC(C)[C@@H]1NC(=O)[C@H](CCCNC(=N)N)NC(=O)[C@@H](CC(=O)O)NC(=O)[C@H](CO)NC(=O)[C@@H](CO)NC(=O)[C@@H](CCC(=O)O)NC(=O)[C@H](Cc2ccc(O)cc2)NC(=O)[C@H](CCCCCS)NC1=O [des4.2.0, SHA-Tyr-dGlu-dSer-Ser-dAsp-Arg-Val] (HELM PEPTIDE1{R.V.[O=C([C@H](CCCCCS)N[*:1])[*:2]].Y.[dE].[dS].S.[dD]}$PEPTIDE1,PEPTIDE1,1:R1-8:R2$$$V2.0)
- HDAC2 activity raw data (signal) (HDAC2; Conc. 1.00E-05 M, t1): 20394
- HDAC2 activity raw data (signal) (HDAC2; Conc. 1.00E-05 M, t2): 38836
- HDAC2 activity raw data (signal) (HDAC2; Conc. 1.11E-06 M, t1): 480221
- HDAC2 activity raw data (signal) (HDAC2; Conc. 1.11E-06 M, t2): 475819
- HDAC2 activity raw data (signal) (HDAC2; Conc. 1.23E-07 M, t1): 1083936
- HDAC2 activity raw data (signal) (HDAC2; Conc. 1.23E-07 M, t2): 1073630
- HDAC2 activity raw data (signal) (HDAC2; Conc. 1.37E-08 M, t1): 1586330
- HDAC2 activity raw data (signal) (HDAC2; Conc. 1.37E-08 M, t2): 1580365
- HDAC2 activity raw data (signal) (HDAC2; Conc. 1.52E-09 M, t1): 1730890
- HDAC2 activity raw data (signal) (HDAC2; Conc. 1.52E-09 M, t2): 1745453
- HDAC2 activity raw data (signal) (HDAC2; Conc. 3.33E-06 M, t1): 208395
- HDAC2 activity raw data (signal) (HDAC2; Conc. 3.33E-06 M, t2): 205670
- HDAC2 activity raw data (signal) (HDAC2; Conc. 3.70E-07 M, t1): 726508
- HDAC2 activity raw data (signal) (HDAC2; Conc. 3.70E-07 M, t2): 767311
- HDAC2 activity raw data (signal) (HDAC2; Conc. 4.12E-08 M, t1): 1358432
- HDAC2 activity raw data (signal) (HDAC2; Conc. 4.12E-08 M, t2): 1262650
- HDAC2 activity raw data (signal) (HDAC2; Conc. 4.57E-09 M, t1): 1679024
- HDAC2 activity raw data (signal) (HDAC2; Conc. 4.57E-09 M, t2): 1646125
- HDAC2 activity raw data (signal) (HDAC2; Conc. 5.08E-10 M, t1): 1775852
- HDAC2 activity raw data (signal) (HDAC2; Conc. 5.08E-10 M, t2): 1816576
- IC50 (HDAC2; figure legends, Supp. Table 1, read-out: HDAC2 IC50): 0.214 µM
- IC50 (HDAC1; Supp. Table 1): 0.0582 µM
- HDAC1 activity raw data (signal) (HDAC1; [1]): 11630
- HDAC1 activity raw data (signal) (HDAC1; [2]): 12995
- HDAC1 activity raw data (signal) (HDAC1; [3]): 76613
- HDAC1 activity raw data (signal) (HDAC1; [4]): 123433
- HDAC1 activity raw data (signal) (HDAC1; [5]): 411114
- HDAC1 activity raw data (signal) (HDAC1; [6]): 418507
- HDAC1 activity raw data (signal) (HDAC1; [7]): 880188
- HDAC1 activity raw data (signal) (HDAC1; [8]): 934141
- HDAC1 activity raw data (signal) (HDAC1; [9]): 1108126
- HDAC1 activity raw data (signal) (HDAC1; [10]): 1086586
- HDAC1 activity raw data (signal) (HDAC1; [11]): 45545
- HDAC1 activity raw data (signal) (HDAC1; [12]): 50745
- HDAC1 activity raw data (signal) (HDAC1; [13]): 212662
- HDAC1 activity raw data (signal) (HDAC1; [14]): 215699
- HDAC1 activity raw data (signal) (HDAC1; [15]): 634511
- HDAC1 activity raw data (signal) (HDAC1; [16]): 682055
- HDAC1 activity raw data (signal) (HDAC1; [17]): 995614
- HDAC1 activity raw data (signal) (HDAC1; [18]): 978150
- HDAC1 activity raw data (signal) (HDAC1; [19]): 1100683
- HDAC1 activity raw data (signal) (HDAC1; [20]): 1179300
- IC50 (HDAC8; Supp. Table 1): 0.37 µM
- HDAC8 activity raw data (signal) (HDAC8; [1]): 92279
- HDAC8 activity raw data (signal) (HDAC8; [2]): 81671
- HDAC8 activity raw data (signal) (HDAC8; [3]): 396585
- HDAC8 activity raw data (signal) (HDAC8; [4]): 434279
- HDAC8 activity raw data (signal) (HDAC8; [5]): 727023
- HDAC8 activity raw data (signal) (HDAC8; [6]): 752193
- HDAC8 activity raw data (signal) (HDAC8; [7]): 1107635
- HDAC8 activity raw data (signal) (HDAC8; [8]): 1031405
- HDAC8 activity raw data (signal) (HDAC8; [9]): 1115979
- HDAC8 activity raw data (signal) (HDAC8; [10]): 1078250
- HDAC8 activity raw data (signal) (HDAC8; [11]): 190039
- HDAC8 activity raw data (signal) (HDAC8; [12]): 213758
- HDAC8 activity raw data (signal) (HDAC8; [13]): 540901
- HDAC8 activity raw data (signal) (HDAC8; [14]): 562035
- HDAC8 activity raw data (signal) (HDAC8; [15]): 828599
- HDAC8 activity raw data (signal) (HDAC8; [16]): 842494
- HDAC8 activity raw data (signal) (HDAC8; [17]): 599790
- HDAC8 activity raw data (signal) (HDAC8; [18]): 1026390
- HDAC8 activity raw data (signal) (HDAC8; [19]): 1085628
- HDAC8 activity raw data (signal) (HDAC8; [20]): 1128546
